Earlier results, collected in article PMC3057427 (ACS combinatorial science, 2011).

Row | SMILES | efficacy in anti-Parkinsonian animal models
1 | O=C(Nc1cc(Cl)cc(Cl)c1)[C@H]1CCCC[C@H]1C(=O)O [Compound 2] | display efficacy
2 | COc1cc(NC(=O)c2ccccn2)ccc1Cl [Compound 6] | display efficacy
